Measured values published in ChEMBL document CHEMBL5696442, “Discovery of type II inhibitors of TGFβ-activated kinase 1 (TAK1) and mitogen-activated protein kinase kinase kinase kinase 2 (MAP4K2)” (J Med Chem, 2015).
The source made the active and inactive calls. The rule behind the calls is not given here.

How the values were obtained:
[1] = biological target: T1, Tyrosine-protein kinase CSK (Homo sapiens, UniProt P41240); experiment: Inhibition of CSK ACT labeling site harbouring VSDFGLTKEASSTQDTGK in human Huh-7 cells at 1 uM by KiNativ Profiling analysis relative to control; format: cell-based
T1 sequence (P41240 2-450 limits assumed): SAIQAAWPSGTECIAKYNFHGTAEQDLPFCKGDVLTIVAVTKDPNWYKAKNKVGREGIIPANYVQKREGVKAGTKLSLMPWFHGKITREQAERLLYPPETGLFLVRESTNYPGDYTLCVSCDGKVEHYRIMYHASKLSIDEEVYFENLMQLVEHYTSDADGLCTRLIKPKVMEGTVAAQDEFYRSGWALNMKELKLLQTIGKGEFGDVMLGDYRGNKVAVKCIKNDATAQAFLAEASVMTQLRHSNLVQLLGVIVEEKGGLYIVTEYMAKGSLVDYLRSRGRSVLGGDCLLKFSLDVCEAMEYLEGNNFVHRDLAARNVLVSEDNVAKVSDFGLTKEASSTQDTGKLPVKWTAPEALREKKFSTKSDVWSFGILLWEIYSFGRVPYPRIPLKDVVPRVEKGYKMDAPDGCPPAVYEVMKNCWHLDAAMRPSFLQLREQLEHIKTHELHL

[2] = biological target: Ribosomal protein S6 kinase alpha-3 (Homo sapiens) (UniProt P51812); experiment: Inhibition of RSK2 domain2 Lys2 labeling site harbouring TVEYLHAQGVVHRDLKPSNILYVDESGNPESIR in human Huh-7 cell lysate at 1 uM by KiNativ Profiling analysis relative to control; format: subcellular
[3] = biological target: Serine/threonine-protein kinase tousled-like 2 (Homo sapiens) (UniProt Q86UE8); experiment: Inhibition of TLK2 (unknown origin) at 1 uM by Ambit Kinomescan binding assay relative to control
[4] = test system: Mast/stem cell growth factor receptor Kit (Homo sapiens), P10721 [D816H]; experiment: Inhibition of KIT D816H mutant (unknown origin) at 1 uM by Ambit Kinomescan binding assay relative to control; values are per cent of control
[5] = biological target: Mitogen-activated protein kinase 14 (Homo sapiens, UniProt Q16539); experiment: Inhibition of p38 alpha Lys2 labeling site in human A-375 cells at 0.5 uM by KiNativ Profiling analysis relative to control; format: cell-based
[6] = biological target: Calcium/calmodulin-dependent protein kinase type II subunit gamma (Homo sapiens) (UniProt Q13555); experiment: Inhibition of CaMK2g Lys1 labeling site harbouring TSTQEYAAKIINTK in human A-375 cells at 5 uM by KiNativ Profiling analysis relative to control; format: cell-based
[7] = biological target: Serine/threonine-protein kinase DCLK1 (Homo sapiens) (UniProt O15075); experiment: Inhibition of DCAMKL1 (unknown origin) at 10 uM by Ambit Kinomescan binding assay
Sequence of Serine/threonine-protein kinase DCLK1 (Homo sapiens) (O15075 whole entry): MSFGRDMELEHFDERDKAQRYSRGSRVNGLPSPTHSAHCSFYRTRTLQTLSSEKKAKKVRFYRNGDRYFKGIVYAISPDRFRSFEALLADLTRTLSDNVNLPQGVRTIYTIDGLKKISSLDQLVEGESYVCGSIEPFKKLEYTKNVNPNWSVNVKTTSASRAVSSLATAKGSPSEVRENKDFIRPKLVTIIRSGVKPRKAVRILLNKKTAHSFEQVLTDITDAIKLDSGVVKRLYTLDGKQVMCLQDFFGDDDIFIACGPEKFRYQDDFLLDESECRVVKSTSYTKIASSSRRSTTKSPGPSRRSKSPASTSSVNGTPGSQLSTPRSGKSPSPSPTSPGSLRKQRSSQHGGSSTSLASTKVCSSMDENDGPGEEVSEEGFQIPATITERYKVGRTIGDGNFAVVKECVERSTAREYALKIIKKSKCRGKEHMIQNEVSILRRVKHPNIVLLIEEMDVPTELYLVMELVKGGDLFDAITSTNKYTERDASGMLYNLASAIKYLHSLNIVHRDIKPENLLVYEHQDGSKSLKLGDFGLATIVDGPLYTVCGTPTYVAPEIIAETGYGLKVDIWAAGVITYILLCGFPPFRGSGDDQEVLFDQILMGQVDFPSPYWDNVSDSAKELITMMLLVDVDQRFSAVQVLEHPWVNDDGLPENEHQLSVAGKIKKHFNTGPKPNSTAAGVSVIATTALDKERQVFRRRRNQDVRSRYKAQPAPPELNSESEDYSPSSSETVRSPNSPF

[8] = biological target: T1, Tyrosine-protein kinase CSK; experiment: Inhibition of CSK ACT labeling site in human A-375 cells at 5 uM by KiNativ Profiling analysis relative to control; format: cell-based
[9] = biological target: T1, Tyrosine-protein kinase CSK; experiment: Inhibition of CSK ACT labeling site harbouring VSDFGLTKEASSTQDTGK in human Huh-7 cells at 10 uM by KiNativ Profiling analysis relative to control; format: cell-based
[10] = biological target: Mitogen-activated protein kinase kinase kinase 9 (Homo sapiens) (UniProt P80192); experiment: Inhibition of MLK1 (unknown origin) at 10 uM by Ambit Kinomescan binding assay
Sequence of Mitogen-activated protein kinase kinase kinase 9 (Homo sapiens) (P80192 whole entry, looked up): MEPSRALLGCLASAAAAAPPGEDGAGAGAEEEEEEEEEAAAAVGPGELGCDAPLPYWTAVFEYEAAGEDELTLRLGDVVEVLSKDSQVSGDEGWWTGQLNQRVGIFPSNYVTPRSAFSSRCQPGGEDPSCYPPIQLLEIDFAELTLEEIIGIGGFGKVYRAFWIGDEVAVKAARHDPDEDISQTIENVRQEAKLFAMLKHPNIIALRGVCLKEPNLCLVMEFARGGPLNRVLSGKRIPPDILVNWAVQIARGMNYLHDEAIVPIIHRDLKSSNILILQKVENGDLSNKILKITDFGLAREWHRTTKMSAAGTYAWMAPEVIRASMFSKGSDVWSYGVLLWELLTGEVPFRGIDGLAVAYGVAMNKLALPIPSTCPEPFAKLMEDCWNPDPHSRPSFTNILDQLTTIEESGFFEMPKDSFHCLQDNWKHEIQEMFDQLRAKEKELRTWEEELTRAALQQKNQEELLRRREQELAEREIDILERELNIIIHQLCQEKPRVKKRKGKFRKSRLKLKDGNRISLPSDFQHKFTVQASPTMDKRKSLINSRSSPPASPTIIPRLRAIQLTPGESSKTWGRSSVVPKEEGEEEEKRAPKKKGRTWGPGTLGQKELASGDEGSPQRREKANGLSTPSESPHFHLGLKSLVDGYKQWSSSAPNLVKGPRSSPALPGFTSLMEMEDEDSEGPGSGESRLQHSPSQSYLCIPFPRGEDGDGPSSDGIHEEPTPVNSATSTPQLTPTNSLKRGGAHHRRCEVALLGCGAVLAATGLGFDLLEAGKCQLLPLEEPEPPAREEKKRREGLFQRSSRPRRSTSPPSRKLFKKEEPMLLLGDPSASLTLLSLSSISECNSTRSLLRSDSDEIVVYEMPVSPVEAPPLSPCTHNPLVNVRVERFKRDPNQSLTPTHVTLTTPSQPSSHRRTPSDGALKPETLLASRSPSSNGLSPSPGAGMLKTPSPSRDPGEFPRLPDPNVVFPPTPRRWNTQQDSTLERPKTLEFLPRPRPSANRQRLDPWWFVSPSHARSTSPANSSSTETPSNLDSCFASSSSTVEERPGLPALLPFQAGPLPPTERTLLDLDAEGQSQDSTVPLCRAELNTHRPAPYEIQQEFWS

[11] = biological target: Calcium/calmodulin-dependent protein kinase type II subunit delta (Homo sapiens) (UniProt Q13557); experiment: Inhibition of CamK2d K1 labeling site harbouring IPTGQEYAAKIINTK in human Huh-7 cells at 10 uM by KiNativ Profiling analysis relative to control; format: cell-based
[12] = biological target: Dual specificity mitogen-activated protein kinase kinase 1 (Homo sapiens) (UniProt Q02750); experiment: Inhibition of MAP2K1 Lys1 labeling site in human A-375 cells at 0.05 uM by KiNativ Profiling analysis relative to control; format: cell-based
[13] = biological target: Rho-associated protein kinase (Homo sapiens) (UniProt O75116+Q13464); experiment: Inhibition of ROCK1/2 K2 labeling site in human Huh-7 cells at 1 uM by KiNativ Profiling analysis relative to control; format: cell-based
Sequence of Rho-associated protein kinase (Homo sapiens) (O75116 whole entry, looked up): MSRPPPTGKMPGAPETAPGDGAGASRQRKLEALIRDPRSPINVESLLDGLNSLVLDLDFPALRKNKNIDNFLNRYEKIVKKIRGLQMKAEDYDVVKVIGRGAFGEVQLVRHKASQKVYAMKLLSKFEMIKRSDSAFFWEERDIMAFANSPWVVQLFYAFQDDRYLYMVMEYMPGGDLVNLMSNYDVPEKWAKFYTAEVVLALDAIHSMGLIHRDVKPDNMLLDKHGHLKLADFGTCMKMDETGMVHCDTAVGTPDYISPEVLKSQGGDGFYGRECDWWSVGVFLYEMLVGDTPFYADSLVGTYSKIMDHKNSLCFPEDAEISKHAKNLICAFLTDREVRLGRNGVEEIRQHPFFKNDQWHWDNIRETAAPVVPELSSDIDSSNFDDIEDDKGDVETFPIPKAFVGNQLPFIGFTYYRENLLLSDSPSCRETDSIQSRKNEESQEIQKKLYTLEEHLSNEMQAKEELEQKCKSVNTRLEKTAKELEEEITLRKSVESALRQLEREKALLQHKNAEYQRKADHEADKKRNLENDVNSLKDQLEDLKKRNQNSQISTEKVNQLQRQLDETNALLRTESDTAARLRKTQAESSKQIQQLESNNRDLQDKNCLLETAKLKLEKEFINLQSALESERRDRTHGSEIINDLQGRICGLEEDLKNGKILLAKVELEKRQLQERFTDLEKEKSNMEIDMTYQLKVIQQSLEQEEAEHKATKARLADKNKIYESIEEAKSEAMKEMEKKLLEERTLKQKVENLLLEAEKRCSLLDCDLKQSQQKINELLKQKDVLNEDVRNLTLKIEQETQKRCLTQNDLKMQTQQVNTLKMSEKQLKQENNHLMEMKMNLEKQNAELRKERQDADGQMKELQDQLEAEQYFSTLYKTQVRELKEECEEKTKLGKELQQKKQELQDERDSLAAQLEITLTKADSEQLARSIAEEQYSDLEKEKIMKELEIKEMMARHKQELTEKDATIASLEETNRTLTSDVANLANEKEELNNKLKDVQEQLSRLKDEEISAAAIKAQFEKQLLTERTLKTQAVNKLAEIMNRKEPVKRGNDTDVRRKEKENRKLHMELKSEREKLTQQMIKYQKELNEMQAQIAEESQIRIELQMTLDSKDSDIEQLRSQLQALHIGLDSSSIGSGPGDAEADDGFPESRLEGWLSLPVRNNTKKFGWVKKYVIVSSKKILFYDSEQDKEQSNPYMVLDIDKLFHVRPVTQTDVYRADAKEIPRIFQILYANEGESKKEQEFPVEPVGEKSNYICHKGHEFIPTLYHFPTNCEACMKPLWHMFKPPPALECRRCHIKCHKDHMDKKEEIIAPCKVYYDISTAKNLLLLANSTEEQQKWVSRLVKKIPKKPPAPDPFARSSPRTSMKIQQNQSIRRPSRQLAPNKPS
Sequence of Rho-associated protein kinase (Homo sapiens) (Q13464 whole entry, looked up): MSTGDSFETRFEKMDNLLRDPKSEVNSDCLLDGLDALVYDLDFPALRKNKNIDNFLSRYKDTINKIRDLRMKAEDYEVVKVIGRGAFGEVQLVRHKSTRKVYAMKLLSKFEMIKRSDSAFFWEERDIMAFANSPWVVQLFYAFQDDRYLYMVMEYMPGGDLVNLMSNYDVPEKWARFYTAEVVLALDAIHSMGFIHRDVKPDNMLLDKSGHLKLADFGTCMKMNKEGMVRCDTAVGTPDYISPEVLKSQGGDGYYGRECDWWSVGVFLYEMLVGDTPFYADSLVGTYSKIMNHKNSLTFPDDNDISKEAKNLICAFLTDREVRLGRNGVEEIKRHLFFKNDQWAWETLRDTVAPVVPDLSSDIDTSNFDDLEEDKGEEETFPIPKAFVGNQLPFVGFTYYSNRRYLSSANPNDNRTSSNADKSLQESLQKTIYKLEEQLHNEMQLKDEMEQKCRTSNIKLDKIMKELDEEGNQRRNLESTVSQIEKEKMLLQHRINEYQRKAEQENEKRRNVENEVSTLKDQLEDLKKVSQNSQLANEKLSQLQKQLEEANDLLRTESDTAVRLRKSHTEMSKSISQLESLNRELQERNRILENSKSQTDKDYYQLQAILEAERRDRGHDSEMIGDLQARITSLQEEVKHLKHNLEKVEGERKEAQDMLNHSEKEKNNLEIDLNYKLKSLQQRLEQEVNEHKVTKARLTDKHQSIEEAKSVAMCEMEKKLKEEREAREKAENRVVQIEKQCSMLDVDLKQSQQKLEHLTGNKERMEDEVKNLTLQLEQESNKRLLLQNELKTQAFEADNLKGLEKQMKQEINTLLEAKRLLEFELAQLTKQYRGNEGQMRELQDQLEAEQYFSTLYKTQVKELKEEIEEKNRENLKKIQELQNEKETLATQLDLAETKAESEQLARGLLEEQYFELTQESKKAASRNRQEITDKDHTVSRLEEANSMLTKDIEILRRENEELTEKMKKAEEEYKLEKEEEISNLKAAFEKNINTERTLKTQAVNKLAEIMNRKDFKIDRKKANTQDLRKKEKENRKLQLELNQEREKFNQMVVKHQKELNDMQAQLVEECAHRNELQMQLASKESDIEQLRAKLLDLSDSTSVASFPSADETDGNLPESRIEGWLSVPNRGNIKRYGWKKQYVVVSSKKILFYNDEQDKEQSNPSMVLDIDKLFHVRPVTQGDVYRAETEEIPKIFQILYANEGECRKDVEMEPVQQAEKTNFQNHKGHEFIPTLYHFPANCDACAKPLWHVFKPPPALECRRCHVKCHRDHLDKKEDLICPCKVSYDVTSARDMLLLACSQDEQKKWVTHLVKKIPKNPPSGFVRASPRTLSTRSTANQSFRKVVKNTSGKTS

[14] = biological target: T2, Mitogen-activated protein kinase kinase kinase kinase 2 (Homo sapiens) (UniProt Q12851); experiment: Inhibition of MAP4K2 (GCK) Lys2 labeling site in human A-375 cells at 0.5 uM by KiNativ Profiling analysis relative to control; format: cell-based
T2 sequence (whole entry): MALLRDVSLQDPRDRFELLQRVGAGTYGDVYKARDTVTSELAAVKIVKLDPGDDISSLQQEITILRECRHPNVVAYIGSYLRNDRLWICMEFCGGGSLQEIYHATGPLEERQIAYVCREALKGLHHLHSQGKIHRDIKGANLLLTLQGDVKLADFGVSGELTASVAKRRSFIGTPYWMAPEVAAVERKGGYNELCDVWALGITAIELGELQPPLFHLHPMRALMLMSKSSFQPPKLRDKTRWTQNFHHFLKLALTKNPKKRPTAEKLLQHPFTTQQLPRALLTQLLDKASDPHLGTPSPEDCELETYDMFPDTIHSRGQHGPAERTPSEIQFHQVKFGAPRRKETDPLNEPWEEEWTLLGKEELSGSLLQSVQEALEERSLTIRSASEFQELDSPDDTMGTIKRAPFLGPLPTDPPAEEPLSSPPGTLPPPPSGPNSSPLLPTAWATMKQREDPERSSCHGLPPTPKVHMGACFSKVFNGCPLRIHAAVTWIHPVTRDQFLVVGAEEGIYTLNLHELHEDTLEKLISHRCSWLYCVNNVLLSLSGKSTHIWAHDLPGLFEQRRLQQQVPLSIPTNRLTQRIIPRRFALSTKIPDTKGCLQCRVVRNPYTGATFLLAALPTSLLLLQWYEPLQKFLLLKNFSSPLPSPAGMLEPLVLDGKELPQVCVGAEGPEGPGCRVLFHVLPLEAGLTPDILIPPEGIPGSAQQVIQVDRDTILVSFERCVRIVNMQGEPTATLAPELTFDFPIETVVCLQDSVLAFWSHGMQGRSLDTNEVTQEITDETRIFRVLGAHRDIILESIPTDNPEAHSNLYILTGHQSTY

[15] = biological target: T3, Phosphatidylinositol 5-phosphate 4-kinase type-2 gamma (Homo sapiens) (UniProt Q8TBX8); experiment: Inhibition of PIP4K2C ATP labeling site harbouring TLVIKEVSSEDIADMHSNLSNYHQYIVK in human A-375 cells at 0.05 uM by KiNativ Profiling analysis relative to control; format: cell-based
T3 sequence (whole entry): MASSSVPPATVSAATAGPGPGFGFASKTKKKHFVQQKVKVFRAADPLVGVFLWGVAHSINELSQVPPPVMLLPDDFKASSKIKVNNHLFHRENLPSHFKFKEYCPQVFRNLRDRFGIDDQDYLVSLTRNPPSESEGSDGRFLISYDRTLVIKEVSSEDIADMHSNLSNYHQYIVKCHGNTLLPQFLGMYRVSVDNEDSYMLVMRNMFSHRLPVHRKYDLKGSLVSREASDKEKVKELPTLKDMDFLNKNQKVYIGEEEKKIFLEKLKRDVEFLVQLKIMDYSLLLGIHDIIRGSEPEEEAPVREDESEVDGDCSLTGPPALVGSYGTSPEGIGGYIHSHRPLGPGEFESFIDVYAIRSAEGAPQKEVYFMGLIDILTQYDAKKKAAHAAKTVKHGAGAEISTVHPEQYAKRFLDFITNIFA

[16] = biological target: MAP/microtubule affinity-regulating kinase 3 (Homo sapiens) (UniProt P27448); experiment: Inhibition of MARK3 K1 labeling site in human Huh-7 cells at 10 uM by KiNativ Profiling analysis relative to control; format: cell-based
[17] = biological target: Serine/threonine-protein kinase Nek6 (Homo sapiens) (UniProt Q9HC98); experiment: Inhibition of NEK6 ACT labeling site in human Huh-7 cells at 1 uM by KiNativ Profiling analysis relative to control; format: cell-based
[18] = biological target: Myosin light chain kinase family member 4 (Homo sapiens) (UniProt Q86YV6); experiment: Inhibition of SgK085 (unknown origin) at 10 uM by Ambit Kinomescan binding assay

CNc1cc(Oc2cc(C(=O)Nc3cc(N4CCN(C)CC4)cc(C(F)(F)F)c3)ccc2C)ncn1
inhibition [1]: 16.6%
inhibition [2]: 11.6%

CCN1CCN(Cc2ccc(NC(=O)c3ccc(C)c(/C=C/c4cnc5[nH]ccc5c4OC)c3)cc2C(F)(F)F)CC1
inhibition [3]: 100%
residual activity [4]: 25%
inhibition [5]: 59.5%
inhibition [6]: 14.6%

CCN1CCN(Cc2ccc(NC(=O)c3ccc(C)c(Oc4ccnc5[nH]ccc45)c3)cc2C(F)(F)F)CC1
inhibition [7]: inactive
inhibition [8]: 57.7%
inhibition [9]: 10.8%
inhibition [10]: inactive
inhibition [11]: -7.6%
inhibition [12]: 2.9%
inhibition [13]: 13.7%
inhibition [14]: 98%
inhibition [15]: -1.1%
inhibition [16]: -7.2%
inhibition [17]: 15.5%
inhibition [18]: inactive
